# Assay results published in BindingDB's records for doi:10.1016/j.bmcl.2004.01.021 (Atherogenics, 2004).
# Target: T1, Tumor necrosis factor receptor superfamily member 1A (Homo sapiens, UniProt P19438)
# T1 sequence (P19438 whole entry): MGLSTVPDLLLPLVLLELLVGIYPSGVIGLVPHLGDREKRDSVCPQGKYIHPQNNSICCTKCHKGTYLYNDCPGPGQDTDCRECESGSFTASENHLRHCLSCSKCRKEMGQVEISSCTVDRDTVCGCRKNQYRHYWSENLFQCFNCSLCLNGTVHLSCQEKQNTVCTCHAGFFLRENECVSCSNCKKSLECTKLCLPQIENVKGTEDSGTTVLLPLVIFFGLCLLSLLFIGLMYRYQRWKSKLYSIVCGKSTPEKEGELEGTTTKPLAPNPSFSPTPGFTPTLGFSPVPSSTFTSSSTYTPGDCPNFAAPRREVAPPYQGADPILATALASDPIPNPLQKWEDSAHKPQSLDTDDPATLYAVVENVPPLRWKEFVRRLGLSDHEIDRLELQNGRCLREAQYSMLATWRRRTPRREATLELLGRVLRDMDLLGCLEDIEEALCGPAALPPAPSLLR
# Test: ChEBML_224214
# Excerpt: Inhibition of TNF-alpha-induced VCAM-1 expression
row,Compound,IC50 [µM]
1,COc1ccc(-c2cccs2)cc1/C=C/C(=O)c1ccc(OCc2ccncc2)c(OC)c1 [(E)-1-[3-Methoxy-4-(pyridin-4-ylmethoxy)-phenyl]-3-(2-methoxy-5-thiophen-2-yl-phenyl)-propenone],4
2,"COc1ccc(COc2c(OC)cc(C(=O)/C=C/c3cc(OC)c(OC)c(OC)c3)cc2OC)cc1OC [(E)-1-[4-(3,4-Dimethoxy-benzyloxy)-3,5-dimethoxy-phenyl]-3-(3,4,5-trimethoxy-phenyl)-propenone]",2
3,"COc1ccc(COc2ccc(C(=O)/C=C/c3cc(OC)c(OC)c(OC)c3)cc2OC)cc1OC [(E)-1-[4-(3,4-Dimethoxy-benzyloxy)-3-methoxy-phenyl]-3-(3,4,5-trimethoxy-phenyl)-propenone]",2
4,COc1ccc(-c2cccs2)cc1/C=C/C(=O)c1ccc(OCc2ccc(N)cc2)c(OC)c1 [(E)-1-[4-(4-Amino-benzyloxy)-3-methoxy-phenyl]-3-(2-methoxy-5-thiophen-2-yl-phenyl)-propenone],7
5,"COc1cc(/C=C/C(=O)c2cc(OC)c(OCc3ccc4c(c3)OCO4)c(OC)c2)cc(OC)c1OC [(E)-1-[4-(Benzo[1,3]dioxol-5-ylmethoxy)-3,5-dimethoxy-phenyl]-3-(3,4,5-trimethoxy-phenyl)-propenone]",3
6,"COc1cc(/C=C/C(=O)c2cc(OC)c(OCc3ccco3)c(OC)c2)cc(OC)c1OC [(E)-1-[4-(Furan-2-ylmethoxy)-3,5-dimethoxy-phenyl]-3-(3,4,5-trimethoxy-phenyl)-propenone]",3
7,"COc1cc(OC)c(-c2cccs2)cc1/C=C/C(=O)c1ccc(OC)c(OC)c1OC [(E)-3-(2,4-Dimethoxy-5-thiophen-2-yl-phenyl)-1-(2,3,4-trimethoxy-phenyl)-propenone]",2
8,"COc1cc(OC)c(C(=O)/C=C/c2cc(-c3cccs3)ccc2OC)c(OC)c1 [(E)-3-(2-Methoxy-5-thiophen-2-yl-phenyl)-1-(2,4,6-trimethoxy-phenyl)-propenone]",3
9,"COc1ccc(-c2cccs2)cc1/C=C/C(=O)c1cc(OC)c(OC)c(OC)c1 [(E)-3-(2-Methoxy-5-thiophen-2-yl-phenyl)-1-(3,4,5-trimethoxy-phenyl)-propenone]",3
10,COc1ccc(-c2cccs2)cc1/C=C/C(=O)c1ccccc1 [(E)-3-(2-Methoxy-5-thiophen-2-yl-phenyl)-1-phenyl-propenone],5
11,"COc1cc(-c2cccs2)ccc1C(=O)/C=C/c1ccc(F)c(F)c1 [(E)-3-(3,4-Difluoro-phenyl)-1-(2-methoxy-4-thiophen-2-yl-phenyl)-propenone]",2
12,"COc1ccc(C(=O)/C=C/c2ccc(OC)c(OC)c2)cc1 [(E)-3-(3,4-Dimethoxy-phenyl)-1-(4-methoxy-phenyl)-propenone]",15
13,"CCOc1cc(OCC)c(C(=O)/C=C/c2cc(Br)c(OC)c(OC)c2)cc1OCC [(E)-3-(3-Bromo-4,5-dimethoxy-phenyl)-1-(2,4,5-triethoxy-phenyl)-propenone]",15
14,"COc1cc(OC)c(C(=O)/C=C/c2cc(Br)c(OC)c(OC)c2)cc1OC [(E)-3-(3-Bromo-4,5-dimethoxy-phenyl)-1-(2,4,5-trimethoxy-phenyl)-propenone]",2
15,"COc1cc(/C=C/C(=O)c2cc(OC)c(OC)c(OC)c2)cc(Br)c1OC [(E)-3-(3-Bromo-4,5-dimethoxy-phenyl)-1-(3,4,5-trimethoxy-phenyl)-propenone]",4
16,CCOc1ccc(/C=C/C(=O)c2cc(-c3cccs3)ccc2OC)cc1F [(E)-3-(4-Ethoxy-3-fluoro-phenyl)-1-(2-methoxy-5-thiophen-2-yl-phenyl)-propenone],4
17,"COc1cc(C(=O)/C=C/c2ccc(-c3cccs3)cc2)cc(OC)c1OC [(E)-3-(4-Thiophen-2-yl-phenyl)-1-(3,4,5-trimethoxy-phenyl)-propenone]",6
18,"COc1cc(OC)c(-c2cc3ccccc3s2)cc1/C=C/C(=O)c1ccc(OC)c(OC)c1OC [(E)-3-(5-Benzo[b]thiophen-2-yl-2,4-dimethoxy-phenyl)-1-(2,3,4-trimethoxy-phenyl)-propenone]",8
